Reference: the CheMixHub viscosity set

Assay: xn = mol fraction of the nth substance listed

BrCCBr + Cc1ccccc1C
101.33 kPa
Conditions	viscosity [mPa·s]
298.15 K, x1 = 0.1292	0.7932
298.15 K, x1 = 0.261	0.8771
298.15 K, x1 = 0.3856	0.9602
298.15 K, x1 = 0.4919	1.032
298.15 K, x1 = 0.585	1.098
298.15 K, x1 = 0.6529	1.182
298.15 K, x1 = 0.7597	1.263
298.15 K, x1 = 0.8472	1.374
298.15 K, x1 = 0.9267	1.487
308.15 K, x1 = 0.1371	0.5822
308.15 K, x1 = 0.2566	0.6257
308.15 K, x1 = 0.3821	0.6992
308.15 K, x1 = 0.4845	0.7526
308.15 K, x1 = 0.5874	0.8292
308.15 K, x1 = 0.6798	0.9216
308.15 K, x1 = 0.7647	1.018
308.15 K, x1 = 0.8499	1.154
308.15 K, x1 = 0.9228	1.273

BrCCBr + C1CCCCC1
101.33 kPa
Conditions	viscosity [mPa·s]
298.15 K, x1 = 0.1283	0.8597
298.15 K, x1 = 0.2453	0.8556
298.15 K, x1 = 0.3514	0.926
298.15 K, x1 = 0.4599	0.9659
298.15 K, x1 = 0.5537	1.009
298.15 K, x1 = 0.6465	1.105
298.15 K, x1 = 0.7406	1.208
298.15 K, x1 = 0.8327	1.311
298.15 K, x1 = 0.91	1.45
308.15 K, x1 = 0.1562	0.7122
308.15 K, x1 = 0.2398	0.7673
308.15 K, x1 = 0.3629	0.8116
308.15 K, x1 = 0.4545	0.8447
308.15 K, x1 = 0.5559	0.9064
308.15 K, x1 = 0.6741	1.021
308.15 K, x1 = 0.7424	1.055
308.15 K, x1 = 0.8334	1.145
308.15 K, x1 = 0.9281	1.286

COc1ccccc1O + CN(C)c1ccccc1
303.15 K, 101 kPa
Conditions	viscosity [mPa·s]
x2 = 0.1	3.71
x2 = 0.2	3.21
x2 = 0.3	2.84
x2 = 0.4	2.46
x2 = 0.5	2.16
x2 = 0.6	1.89
x2 = 0.7	1.65
x2 = 0.8	1.46
x2 = 0.9	1.31

COC(=O)CC(=O)OC + CC(C)=O
303.15 K, 101 kPa
Conditions	viscosity [mPa·s]
x1 = 0.0666	0.4127
x1 = 0.139	0.5371
x1 = 0.2164	0.6676
x1 = 0.3009	0.8036
x1 = 0.392	0.9488
x1 = 0.4919	1.094
x1 = 0.6008	1.258
x1 = 0.7208	1.429
x1 = 0.8531	1.614

COc1ccccc1O + CC(C)=O
303.15 K, 101 kPa
Conditions	viscosity [mPa·s]
x2 = 0.1	3.67
x2 = 0.2	2.95
x2 = 0.3	2.35
x2 = 0.4	1.82
x2 = 0.5	1.26
x2 = 0.6	1.03
x2 = 0.7	0.755
x2 = 0.8	0.573
x2 = 0.9	0.44

CC(C)[N+](=O)[O-] + Cc1cc(C)cc(C)c1
293.15 K, 101.33 kPa
Conditions	viscosity [mPa·s]
x1 = 0.0955	0.691
x1 = 0.1983	0.691
x1 = 0.2294	0.69
x1 = 0.4005	0.691
x1 = 0.5048	0.696
x1 = 0.6007	0.701
x1 = 0.7022	0.708
x1 = 0.8014	0.717
x1 = 0.898	0.738

C1COCCO1 + CCCCO
298.15 K, 101 kPa
Conditions	viscosity [mPa·s]
x1 = 0.0346	2.264
x1 = 0.127	1.806
x1 = 0.5	1.272
x1 = 0.5917	1.099
x1 = 0.6726	1.074
x1 = 0.7123	1.07
x1 = 0.768	1.073
x1 = 0.8002	1.078
x1 = 0.8852	1.091
x1 = 0.9472	1.126

C1COCCO1 + OCCO
viscosity [mPa·s], 100 kPa
Conditions	x1 = 0.1014	x1 = 0.2054	x1 = 0.2968	x1 = 0.3998	x1 = 0.4966	x1 = 0.5992	x1 = 0.7005	x1 = 0.7985	x1 = 0.8969
293.15 K	15.53	11.26	8.022	5.534	3.77	2.758	2.223	1.737	1.405
298.15 K	12.4	9.243	6.602	4.535	3.152	2.436	1.983	1.569	1.329
303.15 K	10.21	7.423	5.425	3.682	–	2.169	1.78	1.401	–
